In patent US7576175B2, “Alpha-4 beta-1 integrin ligands for imaging and therapy” (The Regents of the University of California, priority 2004, dated 2009):
Read-outs that look alike come from different tables or passages of the source. Numbered stars: 1 amine (or outer) side, 2 acyl side, 3 side chain; on linkers, the order of the positions; unused ones are H or OH. Square brackets hold non-standard residues; d marks the D form. Peptide text beside a SMILES is read from it. * marks the point of attachment. Acryloyl(3-(3-pyridyl),E) = O=C(/C=C/c1cccnc1)*; dBpa = N[C@H](Cc1ccc(C(=O)c2ccccc2)cc1)C(=O)O; d2Nal = N[C@H](Cc1ccc2ccccc2c1)C(=O)O; Ala(cPr) = N[C@@H](CC1CC1)C(=O)O; Hyp = O=C(O)[C@@H]1C[C@@H](O)CN1; X1 = O=C(Cc1ccc(N[*:1])cc1)[*:2]; d3Pal = N[C@H](Cc1cccnc1)C(=O)O; Aad = N[C@@H](CCCC(=O)O)C(=O)O; Cha = N[C@@H](CC1CCCCC1)C(=O)O; NH(2-Me-phenyl) = Cc1ccccc1N*; Chg = N[C@H](C(=O)O)C1CCCCC1; Nle = CCCC[C@H](N)C(=O)O; Ac5c = NC1(C(=O)O)CCCC1; Ac3c = NC1(C(=O)O)CC1; CO = O=C([*:1])[*:2]

Assays:
α4β1 integrin [1] = molecular target: T1, α4β1 integrin (Homo sapiens, UniProt P05556+P13612); test: Cell-based α4β1-mediated adhesion assay: inhibition of Jurkat cell adhesion to immobilized CS-1 peptide (IC50)
T1 construct: screened against live Jurkat cells (α4β1 integrin-positive); endogenous in cells; host or cells: Jurkat T-leukemia cells

α4β1 integrin [2] = molecular target: T1, α4β1 integrin; test: Bead-binding inhibition assay: soluble ligand inhibits binding of Jurkat cells to BIO-1211-containing beads; format: cell-based; details: for binding affinity for α4β1 integrin in the bead-binding inhibition assay: soluble ligand vs BIO-1211-containing beads, Jurkat cells
From the text: To this end, the bead library was screened using Jurkat cells in the presence of BIO-1211.
This library was screened using a competitive cell-based screening method with high stringency so that only those ligands with very high affinity to α4β1 integrin are coated by a layer of lymphoma cells (FIG. 2). To achieve this, an increasing amount of known α4β1 antagonist was incorporated into the screening solution, which competed with the interaction between cell surface α4β1 integrin and the immobilized library compounds on the bead surface, until a limited number of positive beads were detected in the library. […] Twenty beads were isolated under these high stringency conditions. Guanidine HCl (8 M) was used to strip the beads of all cells and proteins. The recovered beads were then retested with normal peripheral blood lymphocytes. Beads that bound preferentially to Jurkat cells but not to normal lymphocytes were sequenced. A total of twelve true positive beads were isolated and decoded, which represented 6 independent ligands. All of the identified ligands have the following structure:
The bead-binding inhibition assay was performed using the soluble ligand to inhibit the binding of Jurkat cells to the BIO-1211-containing beads.

[3] = Jurkat cell adhesion to CS-1 peptide, re-synthesized ligands of Tables 18 and 19, read-out: IC50

T1 sequence (P13612 34-1032): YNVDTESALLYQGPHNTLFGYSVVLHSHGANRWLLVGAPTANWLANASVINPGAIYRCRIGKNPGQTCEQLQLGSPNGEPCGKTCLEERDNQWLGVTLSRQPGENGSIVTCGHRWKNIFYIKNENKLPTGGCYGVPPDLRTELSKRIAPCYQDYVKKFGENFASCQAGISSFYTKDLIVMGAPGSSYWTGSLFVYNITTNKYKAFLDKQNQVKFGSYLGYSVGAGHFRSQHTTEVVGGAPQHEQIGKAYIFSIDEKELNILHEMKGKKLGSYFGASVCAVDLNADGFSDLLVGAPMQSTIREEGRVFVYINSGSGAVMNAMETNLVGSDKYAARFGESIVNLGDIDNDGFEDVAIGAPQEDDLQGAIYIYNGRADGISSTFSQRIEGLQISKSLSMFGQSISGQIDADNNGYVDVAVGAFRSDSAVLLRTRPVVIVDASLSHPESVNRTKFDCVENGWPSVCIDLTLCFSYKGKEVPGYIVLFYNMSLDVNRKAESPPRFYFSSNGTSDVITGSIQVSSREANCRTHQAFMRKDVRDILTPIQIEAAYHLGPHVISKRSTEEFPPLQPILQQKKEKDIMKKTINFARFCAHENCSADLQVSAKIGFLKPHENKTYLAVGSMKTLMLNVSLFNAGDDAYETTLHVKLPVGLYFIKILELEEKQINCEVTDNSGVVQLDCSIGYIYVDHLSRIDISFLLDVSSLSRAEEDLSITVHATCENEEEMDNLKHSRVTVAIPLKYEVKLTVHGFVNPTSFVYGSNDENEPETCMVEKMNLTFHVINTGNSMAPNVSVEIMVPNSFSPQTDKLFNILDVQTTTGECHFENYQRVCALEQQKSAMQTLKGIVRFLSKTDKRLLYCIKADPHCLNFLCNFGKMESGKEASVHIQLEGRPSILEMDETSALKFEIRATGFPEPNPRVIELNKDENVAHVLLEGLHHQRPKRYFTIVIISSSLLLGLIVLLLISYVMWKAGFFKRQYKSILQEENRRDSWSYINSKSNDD
T1 sequence (P05556 21-798): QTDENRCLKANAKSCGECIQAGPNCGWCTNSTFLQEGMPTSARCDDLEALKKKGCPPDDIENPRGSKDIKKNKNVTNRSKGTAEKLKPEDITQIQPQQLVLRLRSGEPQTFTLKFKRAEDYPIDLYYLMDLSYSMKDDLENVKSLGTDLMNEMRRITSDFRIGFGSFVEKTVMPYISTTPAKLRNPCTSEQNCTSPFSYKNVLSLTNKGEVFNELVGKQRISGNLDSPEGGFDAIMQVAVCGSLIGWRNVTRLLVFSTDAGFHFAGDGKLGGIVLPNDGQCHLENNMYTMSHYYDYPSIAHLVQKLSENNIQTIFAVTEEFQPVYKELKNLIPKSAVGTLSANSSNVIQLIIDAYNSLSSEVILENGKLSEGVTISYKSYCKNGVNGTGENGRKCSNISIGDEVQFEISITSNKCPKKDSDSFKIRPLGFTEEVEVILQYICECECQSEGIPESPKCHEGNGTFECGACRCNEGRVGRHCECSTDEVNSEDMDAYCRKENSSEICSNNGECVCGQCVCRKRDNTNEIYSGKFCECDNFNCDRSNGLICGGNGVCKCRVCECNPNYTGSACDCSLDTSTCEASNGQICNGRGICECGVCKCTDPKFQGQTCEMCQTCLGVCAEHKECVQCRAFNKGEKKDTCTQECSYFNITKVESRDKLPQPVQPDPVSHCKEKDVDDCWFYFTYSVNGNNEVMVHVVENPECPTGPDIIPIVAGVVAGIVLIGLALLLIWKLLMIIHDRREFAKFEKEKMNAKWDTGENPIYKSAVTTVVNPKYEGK

Row | SMILES | IC50 (α4β1 integrin [1]; [3]) | IC50 (α4β1 integrin [1]) | also measured
1 | Cc1ccccc1NC(=O)Nc1ccc(CC(=O)N[C@@H](CCCCNC(=O)/C=C/c2cccnc2)C(=O)N[C@@H](CCCC(=O)O)C(=O)N[C@H](Cc2ccccc2)C(N)=O)cc1 [1A] | 22 pM |  | 
2 | Cc1ccccc1NC(=O)Nc1ccc(C(C)C(=O)N[C@@H](CCCCNC(=O)/C=C/c2cccnc2)C(=O)N[C@@H](CCCC(=O)O)C(=O)N[C@H](Cc2ccccc2)C(N)=O)cc1 (stereo partly drawn) [1B] | 8900 pM |  | 
3 | Cc1ccccc1NC(=O)Nc1ccc(CC(=O)N[C@@H](CCCCNC(=O)/C=C/c2cccnc2)C(=O)N[C@@H](CCCC(=O)O)C(=O)NC2(C(N)=O)CCCCC2)cc1 [2A] |  |  | binding affinity for α4β1 integrin in the bead-binding inhibition assay (α4β1 integrin [2]): highest binding affinities
4 | Cc1ccccc1NC(=O)Nc1ccc(C(C)C(=O)N[C@@H](CCCCNC(=O)/C=C/c2cccnc2)C(=O)N[C@@H](CCCC(=O)O)C(=O)NC2(C(N)=O)CCCCC2)cc1 (stereo partly drawn) [2B] | 9500 pM |  | 
5 | Cc1ccccc1NC(=O)Nc1ccc(CC(=O)N[C@@H](CCCCNC(=O)/C=C/c2cccnc2)C(=O)N[C@@H](CCCC(=O)O)C(=O)NC2(C(=O)N[C@H](CC(=O)O)C(N)=O)CC2)cc1 [3A] ({NH(2-Me-phenyl)-CO}-[X1]K(Acryloyl(3-(3-pyridyl),E))[Aad][Ac3c][dD]-NH2) |  | 500 pM | binding affinity for α4β1 integrin in the bead-binding inhibition assay (α4β1 integrin [2]): highest binding affinities
6 | Cc1ccccc1NC(=O)Nc1ccc(CC(=O)N[C@@H](CCCCNC(=O)/C=C/c2cccnc2)C(=O)N[C@@H](CCCC(=O)O)C(=O)N[C@H](Cc2ccccc2)C(=O)N[C@H](CC(=O)O)C(N)=O)cc1 [4A] ({NH(2-Me-phenyl)-CO}-[X1]K(Acryloyl(3-(3-pyridyl),E))[Aad][dF][dD]-NH2) |  | 400 pM | concentration inhibiting binding of Jurkat cells to BIO-1211-containing beads, compared with BIO-1211 (α4β1 integrin [2]; overnight incubation, FIG. 7): significantly lower concentration than BIO-1211; binding affinity for α4β1 integrin in the bead-binding inhibition assay (α4β1 integrin [2]): highest binding affinities
7 | Cc1ccccc1NC(=O)Nc1ccc(CC(=O)N[C@@H](CCCCNC(=O)/C=C/c2cccnc2)C(=O)N[C@@H](CCCC(=O)O)C(=O)N[C@H](Cc2ccccc2)C(=O)N[C@H](Cc2cccnc2)C(N)=O)cc1 [7A] ({NH(2-Me-phenyl)-CO}-[X1]K(Acryloyl(3-(3-pyridyl),E))[Aad][dF][d3Pal]-NH2) |  | 4000 pM | 
8 | CCCC[C@H](NC(=O)Cc1ccc(NC(=O)Nc2ccccc2C)cc1)C(=O)N[C@@H](CCCC(=O)O)C(=O)N[C@@H](CC1CCCCC1)C(=O)N[C@H](CCC(=O)O)C(N)=O [8A] ({NH(2-Me-phenyl)-CO}-[X1][Nle][Aad][Cha][dE]-NH2) |  | 750 pM | 
9 | CCCC[C@H](NC(=O)Cc1ccc(NC(=O)Nc2ccccc2C)cc1)C(=O)N[C@@H](CCCC(=O)O)C(=O)N[C@H](C(=O)N1C[C@H](O)C[C@H]1C(=O)N[C@@H](CCCC(=O)O)C(N)=O)C1CCCCC1 [9A] ({NH(2-Me-phenyl)-CO}-[X1][Nle][Aad][Chg][Hyp][Aad]-NH2) |  | 1450 pM | 
10 | Cc1ccccc1NC(=O)Nc1ccc(CC(=O)N[C@@H](CC2CC2)C(=O)N[C@@H](CCCC(=O)O)C(=O)N[C@H](C(=O)NC2(C(=O)N[C@H](CC(=O)O)C(=O)N[C@H](CCC(=O)O)C(N)=O)CCCC2)C2CCCCC2)cc1 [10A] ({NH(2-Me-phenyl)-CO}-[X1][Ala(cPr)][Aad][Chg][Ac5c][dD][dE]-NH2) |  | 530 pM | 
11 | Cc1ccccc1NC(=O)Nc1ccc(CC(=O)N[C@@H](CCCCNC(=O)/C=C/c2cccnc2)C(=O)N[C@@H](CCCC(=O)O)C(=O)N[C@H](Cc2ccc3ccccc3c2)C(=O)N[C@@H](C(=O)N[C@H](Cc2ccc(C(=O)c3ccccc3)cc2)C(N)=O)[C@H](C)O)cc1 [11A] ({NH(2-Me-phenyl)-CO}-[X1]K(Acryloyl(3-(3-pyridyl),E))[Aad][d2Nal][dT][dBpa]-NH2) |  | 77500 pM | 
12 | Cc1ccccc1NC(=O)Nc1ccc(CC(=O)N[C@@H](CCCCNC(=O)/C=C/c2cccnc2)C(=O)N[C@@H](CCCC(=O)O)C(=O)N[C@H](Cc2ccccc2)C(=O)O)cc1 [12A] | 400 pM |  | 
13 | Cc1ccccc1NC(=O)Nc1ccc(CC(=O)N[C@@H](CCCCNC(=O)/C=C/c2cccnc2)C(=O)N[C@@H](CCCC(=O)O)C(=O)N[C@@H](Cc2ccccc2)C(N)=O)cc1 [14A] |  | 200 pM | 
14 | Cc1ccccc1NC(=O)Nc1ccc(CC(=O)N[C@@H](CCCCNC(=O)/C=C/c2cccnc2)C(=O)N[C@@H](CCCC(=O)O)C(=O)N[C@H](C(N)=O)C(C)C)cc1 [15A] | 200 pM |  | 
15 | Cc1ccccc1NC(=O)Nc1ccc(CC(=O)N[C@@H](CCCCNC(=O)/C=C/c2cccnc2)C(=O)N[C@@H](CCCC(=O)O)C(=O)N[C@@H](C(N)=O)C(C)C)cc1 [16A] | 200 pM |  | 
